The source of these data is patent publication US9205102B2, “Method for treatment of castration-resistant prostate cancer” (The University of British Columbia, priority 2013, dated 2015).

e = 2'-O-(2-methoxyethyl) (MOE); d = 2'-deoxy (DNA)

Holding throughout (type): cell-based
For data set [1], the system named is IGFBP-2 or IGFBP-5 (predominant IGFBP). The experiment in a line: Reduction of IGFBP-2 or IGFBP-5 in prostate cancer cell lines in vitro (FIG. 2). The note with it: concentrations of 10 nM to 100 nM.
Another data set has as its system IGFBP-2. The experiment in a line: IGFBP-2 level in V16 samples treated with OGX-225. The settings on record: V16 samples treated with OGX-225 (10 nM).
A further data set relates to MR42D. As to the kind of experiment: Cell viability in enzalutamide resistant cell line MR42D (FIG. 5A). The note with it: compared to a scrambled control. How it is done: (§1) FIGS. 5A and B show cell viability in enzalutamide resistant cell lines MR42D and MR42F, respectively.
(§2) Tests were performed on androgen sensitive cells line (LNCaP), castrate resistant, enzalutamide-sensitive prostate cancer cell lines V16A and V16D, which were derived from LNCaP cells grown in castrated nude, Matsumoto, H.; Yamamoto, Y.; Shiota, M.; et al. Cancer Res. (2013) 73(16): 5206-17 and Kuruma, H; Matsumoto, H.; Shiota, M. et al. Mol Cancer Ther (2013) 12(5): 567-76; and castrate resistant, enzalutamide-resistant prostate cancer cell lines MR42D, MR49C, and MR49F which were derived from LNCaP cells grown in castrated nude mice treated with enzalutamide at 10 mg/kg PO daily. BPH-1 is an immortal, benign prostatic hyperplasia cell line (Hayward S W, Dahiya R, Cunha G R, et al. (1995). In Vitro Cell Dev Biol Anim 31: 14-24).

The subject of another data set is MR42F. As to the kind of experiment: Cell viability in enzalutamide resistant cell line MR42F (FIG. 5B). The settings on record: compared to a scrambled control. Here is the method: as §1, §2
The test system of data set [2] is CRPC cell lines exhibiting resistance to enzaluatamide. As to the kind of experiment: Killing of enzalutamide-resistant CRPC cell lines (summary statement). The note with it: enzalutamide-resistant CRPC cell lines overexpressing IGFBP-2 or IGFBP-5. Here is the method:
In a further aspect of the invention, a method for treatment of prostate cancer is provided in which an agent effective to reduce expression of IGFBP-2 and IGFBP-5 is administered to a patient suffering from prostate cancer, and particularly CRPC, concurrently with the administration of androgen-receptor antagonist treatments. Administration of the antisense concurrently with the androgen-receptor antagonist treatment reduces selective pressure towards resistance within the cancer cell population and therefore can delay onset of androgen-receptor antagonist resistance as well as directly providing a therapeutic benefit by killing resistant cells.

For “OGX-225: bispecific second generation antisense oligonucleotide to IGFBP-2 and IGFBP-5; 20 base phosphorothioate 5-10-5 MOE gapmer, 5′-CAGCAGCCGCAGCCCGGCTC-3′ (sugars from the 5' end e5 d10 e5, all C 5-methyl, all phosphorothioate, T or U not given here)”, in data set [1], the “amount of the predominant IGFBP” value is on record as “reduce the amount of the predominant IGFBP in a dose dependent manner”. The IGFBP-2 level entry in the data set with IGFBP-2 was “Reduction in the IGFBP-2 level”. Further, the cell viability result in the data set on MR42D and with MR42F was “substantially reduce the viability” in each case. The “killing of resistant cells” value in data set [2] was “capable of killing these resistant cells”.
